From ChEMBL document CHEMBL5325450, “Bisabolane-Type Sesquiterpenoids with a Tetrahydrofuran or Tetrahydropyran Ring from Vernonia solanifolia” (J Nat Prod, 2023) come the findings set out here.

The source made the active and inactive calls. The calls are words filed in the database; no cut-off is given here.

Data set [1] concerns RAW264.7. The data set is described as follows: Cytotoxicity against mouse RAW264.7 cells assessed as reduction in cell viability upto 80 uM measured after 24 hrs by MTT assay. Format: toxicity, cell-based. The settings on record: raw264.7, 24 h. (Tetrazolium assays rely on reduction of a dye to a coloured formazan, in cell work by metabolically active cells.)
For data set [2], the system named is RAW264.7. The data set is described as follows: Anti-inflammatory activity against mouse RAW264.7 cells assessed as inhibition of LPS-induced NO production at 80 uM pre-incubated for 1 hr followed by compound addition and measured after 18 hrs by Griess reagent based analysis. The class given is functional, cell-based. The conditions noted are these: time 19.0 hrs.

Data set [3] has as its system RAW264.7. The data set is described as follows: Anti-inflammatory activity against mouse RAW264.7 cells assessed as reduction in LPS-induced NO production pre-incubated for 1 hr followed by compound addition and measured after 18 hrs by Griess reagent based analysis. Format: functional, cell-based. The settings on record: dose 5-80 µM, time 19.0 hrs. On the technique in general: Griess reagent forms a coloured azo dye with nitrite.

Data set [4] has as its system THP-1. The data set is described as follows: Anti-inflammatory activity against LPS-induced human THP-1 cells assessed as reduction in iNOS protein expression by Western blot analysis. The class given is functional, cell-based. The conditions noted are these: dose 20-80 µM.
For data set [5], the target named is T1, Nuclear factor NF-kappa-B complex (Homo sapiens) (UniProt Q00653+P19838+Q04206). The data set is described as follows: Inhibition of NFkappaB signaling pathway in LPS-induced human THP-1 cells assessed as reduction in IKKalpha/beta phosphorylation by Western blot analysis. The class given is cell-based. For orientation: A western blot detects proteins with antibodies after separation by electrophoresis.

Data set [6] concerns the target T1, Nuclear factor NF-kappa-B complex (Homo sapiens). The data set is described as follows: Inhibition of NFkappaB signaling pathway in LPS-induced human THP-1 cells assessed as reduction in IkappaBalpha phosphorylation by Western blot analysis. Format: cell-based.
For data set [7] the target is unchanged. The data set is described as follows: Inhibition of NFkappaB signaling pathway in LPS-induced human THP-1 cells assessed as reduction in p65 phosphorylation by Western blot analysis. The class given is cell-based.

T1 sequence (P19838 whole entry, looked up): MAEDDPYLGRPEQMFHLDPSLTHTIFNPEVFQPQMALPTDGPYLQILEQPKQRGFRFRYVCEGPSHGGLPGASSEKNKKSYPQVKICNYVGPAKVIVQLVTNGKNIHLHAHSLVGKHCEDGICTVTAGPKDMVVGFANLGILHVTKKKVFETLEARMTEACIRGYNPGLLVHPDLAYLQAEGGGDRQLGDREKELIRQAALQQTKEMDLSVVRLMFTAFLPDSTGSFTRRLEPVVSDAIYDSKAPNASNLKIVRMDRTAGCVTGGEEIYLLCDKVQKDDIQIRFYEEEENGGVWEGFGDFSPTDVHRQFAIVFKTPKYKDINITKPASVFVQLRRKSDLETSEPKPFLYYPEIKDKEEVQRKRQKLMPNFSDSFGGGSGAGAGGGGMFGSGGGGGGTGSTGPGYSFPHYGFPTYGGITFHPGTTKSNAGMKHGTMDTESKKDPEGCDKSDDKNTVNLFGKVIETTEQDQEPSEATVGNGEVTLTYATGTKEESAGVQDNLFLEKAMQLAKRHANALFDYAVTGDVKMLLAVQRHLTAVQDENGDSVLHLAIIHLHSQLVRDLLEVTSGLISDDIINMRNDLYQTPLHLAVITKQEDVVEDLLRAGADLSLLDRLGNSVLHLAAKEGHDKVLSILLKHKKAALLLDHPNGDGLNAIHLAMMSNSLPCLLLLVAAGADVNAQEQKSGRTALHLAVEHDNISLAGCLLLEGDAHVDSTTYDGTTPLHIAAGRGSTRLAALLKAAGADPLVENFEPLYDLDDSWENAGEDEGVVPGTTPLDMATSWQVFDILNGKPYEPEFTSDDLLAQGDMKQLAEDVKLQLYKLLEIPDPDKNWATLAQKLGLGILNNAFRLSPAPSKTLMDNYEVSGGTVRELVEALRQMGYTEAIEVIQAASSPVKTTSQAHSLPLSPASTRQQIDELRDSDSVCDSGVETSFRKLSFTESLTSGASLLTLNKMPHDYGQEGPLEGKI
T1 sequence (Q00653 whole entry, looked up): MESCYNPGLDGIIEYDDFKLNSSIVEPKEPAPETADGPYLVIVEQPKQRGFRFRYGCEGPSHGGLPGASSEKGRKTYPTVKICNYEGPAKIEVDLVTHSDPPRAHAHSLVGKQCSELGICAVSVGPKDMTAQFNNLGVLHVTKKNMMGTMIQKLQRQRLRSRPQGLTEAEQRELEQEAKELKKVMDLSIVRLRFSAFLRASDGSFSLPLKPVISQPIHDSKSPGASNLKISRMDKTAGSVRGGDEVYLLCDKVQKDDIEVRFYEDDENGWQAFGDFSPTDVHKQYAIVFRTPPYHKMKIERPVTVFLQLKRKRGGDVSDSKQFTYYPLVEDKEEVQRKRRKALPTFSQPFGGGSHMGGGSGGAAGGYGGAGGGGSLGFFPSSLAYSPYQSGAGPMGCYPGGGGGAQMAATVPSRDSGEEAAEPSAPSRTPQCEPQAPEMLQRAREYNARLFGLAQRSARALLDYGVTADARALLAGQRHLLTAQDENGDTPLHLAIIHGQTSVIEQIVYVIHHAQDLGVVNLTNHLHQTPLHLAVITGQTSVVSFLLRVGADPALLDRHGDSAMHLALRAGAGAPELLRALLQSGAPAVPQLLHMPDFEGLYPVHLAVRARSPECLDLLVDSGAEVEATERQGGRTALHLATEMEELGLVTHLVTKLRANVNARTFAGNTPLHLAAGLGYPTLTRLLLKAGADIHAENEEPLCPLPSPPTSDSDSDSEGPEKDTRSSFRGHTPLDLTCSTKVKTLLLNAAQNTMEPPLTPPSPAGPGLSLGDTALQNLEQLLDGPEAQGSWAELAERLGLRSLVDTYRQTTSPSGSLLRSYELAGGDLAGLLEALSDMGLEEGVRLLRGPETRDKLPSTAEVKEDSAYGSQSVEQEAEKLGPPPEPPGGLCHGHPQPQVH
T1 sequence (Q04206 whole entry, looked up): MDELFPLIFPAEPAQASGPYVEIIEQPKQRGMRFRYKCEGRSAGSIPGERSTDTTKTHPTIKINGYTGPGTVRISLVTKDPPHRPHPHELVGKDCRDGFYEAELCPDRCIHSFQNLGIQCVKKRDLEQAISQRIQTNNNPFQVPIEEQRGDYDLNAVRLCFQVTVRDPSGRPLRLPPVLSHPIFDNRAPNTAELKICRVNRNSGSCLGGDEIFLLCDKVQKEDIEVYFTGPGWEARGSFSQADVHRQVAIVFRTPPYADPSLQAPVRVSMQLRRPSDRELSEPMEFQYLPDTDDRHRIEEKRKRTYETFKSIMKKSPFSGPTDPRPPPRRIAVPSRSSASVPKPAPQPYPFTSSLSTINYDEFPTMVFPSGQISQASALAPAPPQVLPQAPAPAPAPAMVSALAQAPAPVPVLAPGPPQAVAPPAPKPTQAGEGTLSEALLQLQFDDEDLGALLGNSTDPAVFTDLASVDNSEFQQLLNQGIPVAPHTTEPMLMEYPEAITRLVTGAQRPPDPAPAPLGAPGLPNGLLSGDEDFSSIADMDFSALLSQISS

Consider `C[C@](O)(CO)[C@@H]1CC[C@@](C)([C@@H]2CC=C(C(=O)O)CC2)O1`, for which the Activity entry is “Non-Toxic” in data set [1], “Dose-Dependent Effect” in data set [3] and “Dose-Dependent Effect” in data set [4]. Moreover, in data set [2], the outcome was Active. In addition, the inhibition result in data set [5], in data set [6] and in data set [7] was “Active” each time.
